# Experiments:
# Assay in all cases: relative viability (nuclei count vs DMSO), 5 days (fraction); higher = more cells survive
# NCI-H1755 = tested on: NCI-H1755
# Procedure, shortened: (§1)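 One day after seeding in 1536-well plates, lung cancer cell lines were dosed by pin tool. Dosing was either single-drug or a fixed anchor-drug dose plus five library-drug doses (not always all listed) in √10 steps. After 5 days, nuclei were stained in one fix-and-stain step and counted on 4× images, and relative viability is the nuclei count of treated wells over that of vehicle wells, given as the median of duplicate plates.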
# NCI-H1792 = tested on: NCI-H1792
# Procedure, shortened: as §1
# NCI-H1793 = tested on: NCI-H1793
# Procedure, shortened: as §1
# NCI-H1915 = tested on: NCI-H1915
# Procedure, shortened: as §1
# NCI-H1944 = tested on: NCI-H1944
# Procedure, shortened: as §1
# NCI-H1975 = tested on: NCI-H1975
# Procedure, shortened: as §1
# NCI-H2085 = tested on: NCI-H2085
# Procedure, shortened: as §1
# NCI-H358 = tested on: NCI-H358
# Procedure, shortened: as §1
# NCI-H460 = tested on: NCI-H460
# Procedure, shortened: as §1
# SK-LU-1 = tested on: SK-LU-1
# Procedure, shortened: as §1
# UMC-11 = tested on: UMC-11
# Procedure, shortened: as §1
smiles,measurement,setting,value
NC(=O)Nc1cc(-c2cccc(F)c2)sc1C(=O)N[C@H]1CCCNC1 [AZD7762] + C[C@]1(O)C[C@@H](c2nc(-c3ccc4ccc(-c5ccccc5)nc4c3)c3c(N)nccn32)C1 [Linsitinib] (partner 1 µM),relative viability,NCI-H1755; first compound 0.1 µM,1.06
same,relative viability,NCI-H1755; first compound 0.3162 µM,1.03
same,relative viability,NCI-H1755; first compound 1 µM,0.646
same,relative viability,NCI-H1792; first compound 0.01 µM,0.604
same,relative viability,NCI-H1792; first compound 0.03162 µM,0.588
same,relative viability,NCI-H1792; first compound 0.1 µM,0.624
same,relative viability,NCI-H1792; first compound 0.3162 µM,0.599
same,relative viability,NCI-H1792; first compound 1 µM,0.707
same,relative viability,NCI-H1793; first compound 0.01 µM,1.05
same,relative viability,NCI-H1793; first compound 0.03162 µM,0.82
same,relative viability,NCI-H1793; first compound 0.1 µM,0.994
same,relative viability,NCI-H1793; first compound 0.3162 µM,0.801
same,relative viability,NCI-H1793; first compound 1 µM,0.358
same,relative viability,NCI-H1915; first compound 0.01 µM,1.09
same,relative viability,NCI-H1915; first compound 0.03162 µM,1.1
same,relative viability,NCI-H1915; first compound 0.1 µM,1.19
same,relative viability,NCI-H1915; first compound 0.3162 µM,1.2
same,relative viability,NCI-H1915; first compound 1 µM,1.06
same,relative viability,NCI-H1944; first compound 0.01 µM,1.19
same,relative viability,NCI-H1944; first compound 0.03162 µM,1.26
same,relative viability,NCI-H1944; first compound 0.1 µM,1.35
same,relative viability,NCI-H1944; first compound 0.3162 µM,1.25
same,relative viability,NCI-H1944; first compound 1 µM,1.14
same,relative viability,NCI-H1975; first compound 0.01 µM,1.07
same,relative viability,NCI-H1975; first compound 0.03162 µM,0.888
same,relative viability,NCI-H1975; first compound 0.1 µM,0.881
same,relative viability,NCI-H1975; first compound 0.3162 µM,0.681
same,relative viability,NCI-H1975; first compound 1 µM,0.482
same,relative viability,NCI-H2085; first compound 0.01 µM,1.03
same,relative viability,NCI-H2085; first compound 0.03162 µM,0.885
same,relative viability,NCI-H2085; first compound 0.1 µM,0.874
same,relative viability,NCI-H2085; first compound 0.3162 µM,0.948
same,relative viability,NCI-H2085; first compound 1 µM,0.693
same,relative viability,NCI-H358; first compound 0.01 µM,0.695
same,relative viability,NCI-H358; first compound 0.03162 µM,0.745
same,relative viability,NCI-H358; first compound 0.1 µM,0.711
same,relative viability,NCI-H358; first compound 0.3162 µM,0.617
same,relative viability,NCI-H358; first compound 1 µM,0.42
same,relative viability,NCI-H460; first compound 0.01 µM,0.975
same,relative viability,NCI-H460; first compound 0.03162 µM,0.727
same,relative viability,NCI-H460; first compound 0.1 µM,0.719
same,relative viability,NCI-H460; first compound 0.3162 µM,0.135
same,relative viability,NCI-H460; first compound 1 µM,0.0126
same,relative viability,SK-LU-1; first compound 0.01 µM,1.1
same,relative viability,SK-LU-1; first compound 0.03162 µM,0.804
same,relative viability,SK-LU-1; first compound 0.1 µM,0.358
same,relative viability,SK-LU-1; first compound 0.3162 µM,0.218
same,relative viability,SK-LU-1; first compound 1 µM,0.251
same,relative viability,UMC-11; first compound 0.01 µM,1.03
same,relative viability,UMC-11; first compound 0.03162 µM,0.956
same,relative viability,UMC-11; first compound 0.1 µM,0.976
same,relative viability,UMC-11; first compound 0.3162 µM,0.689
same,relative viability,UMC-11; first compound 1 µM,0.551

# — the supplement of paper PMC10307832
